Laboratory results: US8415479B2, “Inhibitor of plasminogen activator inhibitor-1” (Renascience Co., Ltd., priority 2008, dated 2013)

What was measured:
PAI-1 [1] = target: T1, PAI-1 (Homo sapiens, UniProt P05121); experiment: Measurement of PAI-1 inhibitory activity (t-PA / chromogenic substrate S-2288); conditions: statement in words referring to the test example (compound at 20 μM or 50 μM); numeric PAI-1 activities (%) only in FIGS. 1 to 7
Protocol: The change in PAI-1 activity can be examined by setting, as an index, a reaction product produced by the action of t-PA on a substrate. […] It can be judged that when the amount of reaction product is larger, the PAI-1 inhibitory action is higher.
More specifically, human-derived PAI-1 was added to a 0.1% Tween 80-containing 100 mM Tris-HCl (pH 8) solution containing each of the above compounds in a given concentration (20 μM or 50 μM), and incubated at 37° C. for 15 minutes. Subsequently, human-derived tissue plasminogen activator (t-PA) (manufactured by American Diagnostica, Inc. (USA); the same applies hereinafter) adjusted to 0.3 pmol/μL, was added thereto, and further incubated at 37° C. for 15 minutes.

PAI-1 [2] = target: T1, PAI-1; experiment: Reference Test Example (2) evaluation of fibrinolytic action (fibrin plate, mixture of PAI-1, t-PA and test compound); format: biochemical; set-up: purchased Molecular Innovations Inc. (USA); conditions: room temperature, 18 hours
Protocol: The compounds a and b were evaluated for fibrinolytic action in accordance with the document (Matsuo, O. et al., Haemostasis, 16, 43-50 (1986)).
More specifically, an aqueous solution (containing 25 mM barbital-sodium, 50 mM NaCl, and 25 mM CaCl2) containing a concentration of 1.5 mg/mL of fibrinogen (produced by Organon Teknica) was added, on a 9 cm-plate, to thrombin dissolved in 0.2 mL of physiological saline (10NIH U/mL: produced by Mochida Pharmaceutical Co., Ltd.), and the mixture was allowed to stand at room temperature for 2 hours. Using this mixture, fibrinolysis assay was conducted.
Namely, a mixture of PAI-1, t-PA, and each of the test compounds was dropped onto the plate and incubated at room temperature for 18 hours. After the incubation, fibrinolysis due to plasminogen activation was measured from the lysis area on the plate.

PAI-1 [3] = target: T1, PAI-1; experiment: Reference Test Example (1) PAI-1 inhibitory activity assay (t-PA / S-2288); format: biochemical; set-up: purchased Molecular Innovation(s) Inc. (USA); conditions: concentrations of 35 μM and 50 μM; FIG. 8
Protocol: P-nitranilide removed from the chromogenic substrate (S-2288) by t-PA action was measured using a spectrophotometer at an absorbance of 405 nm at 5-minute intervals for 30 minutes.
Comparative tests were carried out in the same manner using, in place of the above test compounds, a compound (tiplaxtinin) of the formula below used as an antithrombotic drug in US clinical trials (provided that the given concentrations were 20, 35, and 50 μM).
FIGS. 8 (A), (B), and (C) each show PAI-1 activity (%) when the compound a (concentrations: 20, 35, and 50 μM), the compound b (concentrations: 20, 35, and 50 μM), and tiplaxtinin (comparative compound) (concentrations: 20, 35, and 50 μM) are added, respectively.

[4] = test system: mouse model with pulmonary fibrosis artificially induced by bleomycin; experiment: Reference Test Example (3) effects on bleomycin-induced pulmonary fibrosis; format: in vivo, C57BL/6 mouse; conditions: scored from 0 to 8 (method of Ashcort et al.); bleomycin + compound b 200 mg/kg p.o. twice/day for 14 days; FIG. 9
Protocol: A C57BL/6 mouse (male, body weight: 19 to 21 g) was intraperitoneally anesthetized with pentobarbital, and an incision was made on the cervical organ. Ten mice were used as controls. The control mice (n=10) were endotracheally administered bleomycin (produced by Nippon Kayaku Co., Ltd.) (1.5 U/kg) lysed in physiological saline, twice a day for 14 days. On the other hand, the test mice were subjected to forcible oral administration with the compound b (200 mg/kg), suspended in a 0.5% carboxymethyl cellulose aqueous solution, twice a day for 14 days, in addition to the above endotracheal administration. Then, the lung tissues taken from these control mice and the test mice were analyzed, and further assayed for hydroxyproline levels. The hydroxyproline levels in the lung tissues were assayed in terms of the level in the hydrolysate of the lung tissues as described in the method of Kivirikko et al. (Anal. Biochem. 19, 249-255 (1967)). The levels (severity) of pulmonary fibrosis were scored from 0 to 8, based on the method of Ashcort et al. (J. Clin. Pathol. 41, 467-470 (1988)). Further, the control mice and the test mice were assayed for plasma PAI-1 activity (ng/mL).

T1 sequence (P05121 24-402): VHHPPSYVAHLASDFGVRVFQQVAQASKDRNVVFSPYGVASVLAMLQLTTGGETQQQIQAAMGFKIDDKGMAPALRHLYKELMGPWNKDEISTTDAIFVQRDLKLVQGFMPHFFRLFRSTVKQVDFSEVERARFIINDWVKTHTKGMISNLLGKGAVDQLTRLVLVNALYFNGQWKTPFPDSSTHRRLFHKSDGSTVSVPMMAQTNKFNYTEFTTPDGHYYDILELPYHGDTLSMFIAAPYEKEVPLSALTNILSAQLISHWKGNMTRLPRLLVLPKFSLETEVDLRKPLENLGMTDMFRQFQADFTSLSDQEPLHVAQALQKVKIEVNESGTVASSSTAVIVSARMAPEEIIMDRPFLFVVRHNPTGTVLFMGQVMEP

| SMILES | inhibitory action on PAI-1 activity (PAI-1 [1]) | also measured |
| --- | --- | --- |
| CC(=O)Nc1ccc(-c2ccc(C)c(NC(=O)COCC(=O)Nc3ccc(Cl)cc3C(=O)O)c2)cc1 [Compound 44, 2-([(2-([4′-(acetylamino)-4-methylbiphenyl-3-yl]amino)-2-oxoethoxy)acetyl]amino)-5-chlorobenzoic acid] | excellent inhibitory action on PAI-1 activity | – |
| CCC(CC(=O)Nc1scc(-c2ccccc2)c1C(=O)O)C(=O)Nc1scc(-c2ccccc2)c1C(=O)O (centres unmarked) [compound a, 2-[3-(3′-carboxy-4′-phenylthiophen-2′-ylcarbamoyl)-pentanoylamino]-4-phenylthiophen-3-carboxylic acid] | – | fibrinolytic action (lysis area on fibrin plate) (PAI-1 [2]): inhibit fibrinolysis suppression caused by PAI-1; PAI-1 activity inhibitory action compared with tiplaxtinin (PAI-1 [3]): higher PAI-1 activity inhibitory action at concentrations of 35 μM and 50 μM than tiplaxtinin |
| O=C(COCC(=O)Nc1ccc(Cl)cc1C(=O)O)Nc1cccc(Cc2ccoc2)c1 [Compound 55, 5-chloro-2-([(2-([3-(furan-3-ylmethyl)phenyl]amino)-2-oxoethoxy)acetyl]amino)benzoic acid] | excellent inhibitory action on PAI-1 activity | – |
| O=C(COCC(=O)N(c1ccccc1)C1CCCCC1)Nc1ccc(Cl)cc1C(=O)[O-].[Na+] [Compound 15, 5-chloro-2-[((2-[cyclohexyl(phenyl)amino]-2-oxoethoxy)acetyl)amino]benzoic acid.sodium salt] | excellent inhibitory action on PAI-1 activity | – |
| CCC(CC(=O)Nc1scc(-c2cccs2)c1C(=O)O)C(=O)Nc1scc(-c2cccs2)c1C(=O)O (centres unmarked) [compound b, 2-[3-(3′-carboxy-4′-thienylthiophen-2′-ylcarbamoyl)-pentanoylamino]-4-thienylthiophen-3-carboxylic acid] | – | fibrosis score [4]: 2.9±0.42; fibrinolytic action (lysis area on fibrin plate) (PAI-1 [2]): inhibit fibrinolysis suppression caused by PAI-1; PAI-1 activity inhibitory action compared with tiplaxtinin (PAI-1 [3]): higher PAI-1 activity inhibitory action at concentrations of 35 μM and 50 μM than tiplaxtinin |
| O=C(COCC(=O)Nc1ccc(Cl)cc1C(=O)O)Nc1ccc(-c2ccncc2)cc1 [Compound 1, 5-chloro-2-([(2-oxo-2-([4-(pyridin-4-yl)phenyl]amino)ethoxy)acetyl]amino)benzoic acid] | excellent inhibitory action on PAI-1 activity | – |
| O=C(COCC(=O)Nc1ccc(Cl)cc1C(=O)O)Nc1cccc(-c2ccncc2)c1 [Compound 2, 5-chloro-2-([(2-oxo-2-([3-(pyridin-4-yl)phenyl]amino)ethoxy)acetyl]amino)benzoic acid] | excellent inhibitory action on PAI-1 activity | – |
| O=C(COCC(=O)Nc1ccc(Cl)cc1C(=O)O)Nc1cccc(-c2cccs2)c1 [Compound 63, 5-chloro-2-([(2-oxo-2-([3-(thiophen-2-yl)phenyl]amino)ethoxy)acetyl]amino)benzoic acid] | excellent inhibitory action on PAI-1 activity | – |
| O=C(COCC(=O)Nc1ccc(Cl)cc1C(=O)O)Nc1ccc(-c2ccoc2)cc1 [Compound 64, 5-chloro-2-([(2-([4-(furan-3-yl)phenyl]amino)-2-oxoethoxy)acetyl]amino)benzoic acid] | excellent inhibitory action on PAI-1 activity | – |
| O=C(COCC(=O)NC1CCCCCCCCCCC1)Nc1ccc(Cl)cc1C(=O)O [Compound 11, 5-chloro-2-(([2-(cyclododecylamino)-2-oxoethoxy]acetyl)amino)benzoic acid] | excellent inhibitory action on PAI-1 activity | – |
| Cc1ccc(-c2ccc(F)cc2)cc1NC(=O)C(=O)Nc1ccc(Cl)cc1C(=O)[O-].[Na+] [Compound 20, 5-chloro-2-(([(4′-fluoro-4-methylbiphenyl-3-yl)amino](oxo)acetyl)amino)benzoic acid.sodium salt] | excellent inhibitory action on PAI-1 activity | – |
